Measured values published in patent publication US12077503B2, “Substituted cyclic amides and their use as herbicides” (FMC CORPORATION, priority 2015, dated 2024).

Legend:
Format in all cases: in vivo
[1] = tested on: sedge, umbrella (small-flower umbrella sedge, Cyperus difformis); assay: Test B flooded paddy test; details: Cyperus difformis, Flood, 250 g ai/ha; scale of 0 to 100 where 0 is no effect and 100 is complete control; read-out: Sedge, Umbrella plant response rating
In short: (§1)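 Rating scale 0–100 (visual, vs untreated controls) after a 13–15 d greenhouse period; application to the flood layer, 3 cm above soil and maintained; plants at 2-leaf stage when treated.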

[2] = tested on: barnyardgrass (Echinochloa crus-galli); assay: Test B flooded paddy test; details: Echinochloa crus-galli, Flood, 250 g ai/ha; scale of 0 to 100 where 0 is no effect and 100 is complete control; read-out: Barnyardgrass plant response rating
In short: as §1

[3] = tested on: ducksalad (Heteranthera limosa); assay: Test B flooded paddy test; details: Heteranthera limosa, Flood, 250 g ai/ha; scale of 0 to 100 where 0 is no effect and 100 is complete control; read-out: Ducksalad plant response rating
In short: as §1

rice (Oryra sativa) = assay: Test B flooded paddy test; details: Oryza sativa, Flood, 250 g ai/ha; scale of 0 to 100 where 0 is no effect and 100 is complete control; read-out: Rice plant response rating
In short: as §1

[4] = tested on: wheat (Triticum aestivum); assay: Test A postemergence; details: Triticum aestivum, post-emergence, 240 h, read-out: Plant response rating, Wheat
In short: (§2)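 Treatment is preemergence as a directed soil spray after planting, or postemergence at the one- to two-leaf stage, with test chemical in a non-phytotoxic solvent mixture plus surfactant. Plants stay in the greenhouse about 10 d before visual injury scoring on a 0 to 100 scale versus untreated controls.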

[5] = tested on: barnyardgrass (Echinochloa crus-galli); assay: Test A postemergence; details: Echinochloa crus-galli, post-emergence, 240 h, read-out: Plant response rating, Barnyardgrass; for pest or weed control at 125 g/ha: 125 g ai/ha, postemergence, visual injury after approximately 10 d, 0 to 100 scale (0 no effect, 100 complete control)
In short: as §2

corn (Zea mays) = assay: Test A postemergence; details: Zea mays, post-emergence, 240 h; for Corn plant response rating (crop injury, 0 = no effect, 100 = complete kill) at 125 g/ha: 125 g ai/ha, postemergence, visual injury after approximately 10 d, 0 to 100 scale (0 no effect, 100 complete control)
In short: as §2

[6] = tested on: blackgrass (Alopecurus myosuroides); assay: Test A postemergence; details: Alopecurus myosuroides, post-emergence, 240 h, read-out: Plant response rating, Blackgrass; for pest or weed control at 125 g/ha: 125 g ai/ha, postemergence, visual injury after approximately 10 d, 0 to 100 scale (0 no effect, 100 complete control)
In short: as §2

[7] = tested on: Galium (catchweed bedstraw, Galium aparine); assay: Test A postemergence; details: Galium, post-emergence, 240 h, read-out: Plant response rating, Galium; for pest or weed control at 125 g/ha: 125 g ai/ha, postemergence, visual injury after approximately 10 d, 0 to 100 scale (0 no effect, 100 complete control)
In short: as §2

Kochia (Kochia scoparia) = assay: Test A postemergence; details: Bassia scoparia, post-emergence, 240 h, read-out: Plant response rating, Kochia; for pest or weed control at 125 g/ha: 125 g ai/ha, postemergence, visual injury after approximately 10 d, 0 to 100 scale (0 no effect, 100 complete control)
In short: as §2

[8] = tested on: giant foxtail (Setaria faberii); assay: Test A postemergence; details: Setaria faberi, post-emergence, 240 h, read-out: Plant response rating, Foxtail, Giant; for pest or weed control at 125 g/ha: 125 g ai/ha, postemergence, visual injury after approximately 10 d, 0 to 100 scale (0 no effect, 100 complete control)
In short: as §2

[9] = tested on: ragweed (common ragweed, Ambrosia elatior); assay: Test A postemergence; details: Ambrosia artemisiifolia, post-emergence, 240 h, read-out: Plant response rating, Ragweed; for pest or weed control at 125 g/ha: 125 g ai/ha, postemergence, visual injury after approximately 10 d, 0 to 100 scale (0 no effect, 100 complete control)
In short: as §2

[10] = tested on: ryegrass, Italian (Italian ryegrass, Lolium multiflorum); assay: Test A postemergence; details: Lolium multiflorum, post-emergence, 240 h, read-out: Plant response rating, Ryegrass, Italian; for pest or weed control at 125 g/ha: 125 g ai/ha, postemergence, visual injury after approximately 10 d, 0 to 100 scale (0 no effect, 100 complete control)
In short: as §2

[11] = tested on: pigweed (Amaranthus retroflexus); assay: Test A postemergence; details: Amaranthus retroflexus, post-emergence, 240 h, read-out: Plant response rating, Pigweed; for pest or weed control at 125 g/ha: 125 g ai/ha, postemergence, visual injury after approximately 10 d, 0 to 100 scale (0 no effect, 100 complete control)
In short: as §2

[12] = Postemergence, 31 g ai/ha, visual injury after approx. 10 d, 0 to 100 scale, 0 no effect, 100 complete control

| SMILES | pest or weed control at 250 g/ha [1] | pest or weed control at 250 g/ha [2] | pest or weed control at 250 g/ha [3] | pest or weed control at 250 g/ha (rice (Oryra sativa)) | pest or weed control at 125 g/ha [5] | Corn plant response rating (crop injury, 0 = no effect, 100 = complete kill) at 125 g/ha (corn (Zea mays)) | pest or weed control at 125 g/ha [6] | pest or weed control at 125 g/ha [7] | pest or weed control at 125 g/ha (Kochia (Kochia scoparia)) | pest or weed control at 125 g/ha [8] | pest or weed control at 125 g/ha [9] | pest or weed control at 125 g/ha [10] | pest or weed control at 125 g/ha [11] | further results |
| --- | --- | --- | --- | --- | --- | --- | --- | --- | --- | --- | --- | --- | --- | --- |
| Cc1cc(F)cc([C@H]2CN(C)C(=O)[C@@H]2C(=O)Nc2ccc(F)c(F)c2F)c1 [Compound 801] | 40% | 90% | 90% | 30% | 90% | 60% | 60% | 60% | 40% | 90% | 50% | 60% | 30% | plant injury at 31 g/ha [4, 12]: 0%; pest or weed control at 31 g/ha [5, 12]: 80%; Corn plant response rating (crop injury, 0 = no effect, 100 = complete kill) at 31 g/ha (corn (Zea mays); [12]): 20%; pest or weed control at 31 g/ha [6, 12]: 20%; pest or weed control at 31 g/ha [7, 12]: 30%; pest or weed control at 31 g/ha (Kochia (Kochia scoparia); [12]): 20%; pest or weed control at 31 g/ha [8, 12]: 70%; pest or weed control at 31 g/ha [9, 12]: 0%; pest or weed control at 31 g/ha [10, 12]: 0%; pest or weed control at 31 g/ha [11, 12]: 30% |
| Cc1ccc([C@H]2CNC(=O)[C@@H]2C(=O)Nc2cccc(F)c2F)c(F)c1 [Compound 720] | 0% | 30% | 100% | 0% | 90% | 0% | 20% | 50% | 50% | 20% | 0% | 0% | 0% | plant injury at 125 g/ha ([4]; 125 g ai/ha, postemergence, visual injury after approximately 10 d, 0 to 100 scale (0 no effect, 100 complete control)): 0% |
